# Laboratory results: patent US20060198925A1, “Food preservative” (priority 2003, published 2006)
# Experiments:
# yeast = assay: Final proofing time of dough containing the additive; assay type: cell-based; conditions: 6.5 grams additive in dough; final proofing at 40° C. and relative humidity of 80%; time of rising to a specific maximum volume
# Method: Then a dough comprising the following ingredients was prepared: [table] Then a further additive was mixed with the above-mentioned dough: The four above-mentioned doughs were mixed for half a minute at slow speed in a McDuffy mixer and then for 8.5 minutes at high speed in the same mixer. The dough temperature was 26° C. The resting time was 2 minutes (at room temperature). After said resting time 420 grams of each dough was taken, and the doughs (each of 420 grams) were then rounded up softly by hand. The initial proofing time was 6 minutes (at room temperature), after which the doughs were moulded into a certain baking form. The final proofing time (at 40° C. and a relative humidity of 80%) was determined, which appeared to be dependent on the type of further additive as contained in the four above-mentioned doughs. With “final proofing time” it is herein meant the time period of rising the dough, before baking, to a certain extent being a specific maximum volume. After this final proofing the doughs were baked for 20 minutes in an oven at 210° C. (top oven temperature) and at 230° C. (bottom oven temperature). The four bread products as obtained were then stored at room temperature (and at a relative humidity of 80%). During 1 month it was determined by means of visual observation whether or not moulds were formed on the four bread products.
# moulds = assay: Mould formation on stored bread product (visual observation); assay type: cell-based; conditions: bread stored at room temperature, relative humidity of 80%, visual observation during 1 month
# Method: The four above-mentioned doughs were mixed for half a minute at slow speed in a McDuffy mixer and then for 8.5 minutes at high speed in the same mixer. The dough temperature was 26° C. The resting time was 2 minutes (at room temperature). After said resting time 420 grams of each dough was taken, and the doughs (each of 420 grams) were then rounded up softly by hand. The initial proofing time was 6 minutes (at room temperature), after which the doughs were moulded into a certain baking form. The final proofing time (at 40° C. and a relative humidity of 80%) was determined, which appeared to be dependent on the type of further additive as contained in the four above-mentioned doughs. With “final proofing time” it is herein meant the time period of rising the dough, before baking, to a certain extent being a specific maximum volume. After this final proofing the doughs were baked for 20 minutes in an oven at 210° C. (top oven temperature) and at 230° C. (bottom oven temperature). The four bread products as obtained were then stored at room temperature (and at a relative humidity of 80%). During 1 month it was determined by means of visual observation whether or not moulds were formed on the four bread products.
structure (smiles),measurement,setting,value
"CCC(=O)[O-].CCC(=O)[O-].[Ca+2] [Comparative, calcium propionate]",Final proofing time of dough,yeast,90 min
same,Mould formation on bread product,moulds,no
